Source: US20180318383A1, “PEPTIDE HAVING NEURONAL LOSS PREVENTION AND REGENERATION EFFECTS, AND COMPOSITION CONTAINING SAME” (GEMVAX & KAEL CO., LTD., priority 2015, published 2018)

Experiments:
[1] = test system: primary cultured cortical nerve; assay: Intracellular signaling proteins in damaged neurons; type: cell-based, rat; details: Aβ25-35 + PEP1
Experimental: A primary cultured cortical nerve was obtained from the cerebral cortex of the fetal rat on day 16 of the embryonic period. Briefly, the brain was rapidly removed from the rat, and placed in a petri dish containing cold phosphate-buffered physiological saline (HBSS). Single cells were isolated from the cerebral cortex, and added into a previously poly-L-lysine-coated Corning dish with a diameter of 100 mm, or a glass coverslip was placed in a 6- or 24-well plate. The cultured cells were cultured in DMEM (high glucose).
Two days after the cells were added, non-neuronal cells were removed through treatment of 5 μM cytosine arabinoside for 24 hours. Only the mature culture (7 days in the test tube) was used in this experiment. Approximately 79.7% of a group of neurons was obtained from the neurons of a primary cortex. […]

Tau = assay: NFT generation (Tau expression) in 3XTg-AD mice (western blotting, immunostaining); type: in vivo; details: hippocampus and whole brain; vs control and Donepezil
Experimental: (§1) To test the efficacy of PEP1 on AD, AD transgenic mice (3XTg-AD) were purchased from Jackson Laboratory. Genetic characteristics of the transgenic mice are as follows: B6; 129-Psen1tm1Mpm Tg(APPSwe, tauP301L)1Lfa/Mmjax. […] One week after mice were confirmed as pregnant, new mice were delivered and weaned for 3 weeks. Two weeks later, mature mice were obtained.
(§2) During the preliminary breeding and the entire period of the experiment, a temperature was maintained at 23±2° C. and a relative humidity was maintained at 60±10%, and then the mice were raised under a 12-hour dark/light cycle. Experimental animals were divided into five groups, and each group included 10 animals. The divided experimental groups are as follows. […]
(§3) The PEP1, physiological saline, donepezil and scramble peptide were subcutaneously injected at each concentration three times a week for two months from the age of 12 months, and then two months after the injection, cognitive/memory behavior tests (passive avoidance test and Y maze test) were performed to examine a degree of improvement in cognitive function and memory function. After the brain was extracted to separate the hippocampus, the amounts of amyloid beta in the hippocampus and the whole brain, and the amounts of an amyloid beta oligomer and NFT generated by tau hyperphosphorylation were determined by western blotting and immunostaining. […]

oligomer Aβ = assay: Expression level of oligomer Aβ in 3XTg-AD mice (western blotting); type: in vivo; details: hippocampus and whole brain; vs control and Donepezil
Experimental: as §1, §2, §3

EARPALLTSRLRFIPK (homo sapiens) [PEP1, hTERT-derived peptide consisting of 16 amino acids, telomerase location [611-626]]
apoptosis-associated proteins [1]: a low amount
proliferation-associated proteins [1]: a large amount
expression level of Tau (Tau): decreased
expression level of oligomer Aβ (oligomer Aβ): decreased
